Columns and labels:
[1] = tested on: nuclear chromatin decondensation in PMNs; assay: Nuclear decondensation assay in PMA-treated neutrophils; type: cell-based, human; details: PMA 20 nM; peptides 1 nM, Cl-amidine 10 μM, sivelestat 200 nM
Experimental: FIG. 7B is a graph depicting nuclear areas that were measured (n=4) using IMAGEJ™ software (mean nuclear pixel area per cell±SEM). Paired Student's t test, *P<0.05, § P=0.057.
FIG. 12A depicts nuclear decondensation (white arrowheads and magnified image) that were assessed as in FIGS. 7A-7E after a 1 hour preincubation in medium alone, with neutrophil elastase (NE) inhibitor sivelestat (SIVL; 200 nM), or with CRISPP or CRISPP-SCR (both 1 nM) followed by treatment with PMA (20 nM) and an additional 1 hour incubation (n=3). Green fluorescence=nuclear DNA, (60× magnification, scale bar=20 μm). Nuclear area was quantified using IMAGEJ™ software (nuclear pixel area per cell±SEM). One way ANOVA with Tukey's post hoc testing; **P<0.01, ***P<0.001.
Nuclear decondensation was identified as described (see Papayannopoulos V, et al., J Cell Biol. 2010; 191 (3):677-91). Five randomly selected high-power visual fields per sample were captured via confocal microscopy and analyzed for nuclear area using the cell-permeable, fluorescent DNA dye SYTO® Green. The nuclear pixel areas of >100 individual cells per high-power field were determined using IMAGEJ™ software (NIH).

recombinant PAD4 = molecular target: T1, recombinant PAD4 (Homo sapiens, UniProt Q9UM07); assay: Cell-free PAD4 deimination assay; type: biochemical; details: for PAD4 activity: cell-free, synthetic substrate, nNIF 1 nM, Cl-amidine 10 μM; for order of potency of inhibition of PAD4: initial comparison of NRPs
T1 construct: purchased CAYMAN
T1 sequence (Q9UM07 whole entry): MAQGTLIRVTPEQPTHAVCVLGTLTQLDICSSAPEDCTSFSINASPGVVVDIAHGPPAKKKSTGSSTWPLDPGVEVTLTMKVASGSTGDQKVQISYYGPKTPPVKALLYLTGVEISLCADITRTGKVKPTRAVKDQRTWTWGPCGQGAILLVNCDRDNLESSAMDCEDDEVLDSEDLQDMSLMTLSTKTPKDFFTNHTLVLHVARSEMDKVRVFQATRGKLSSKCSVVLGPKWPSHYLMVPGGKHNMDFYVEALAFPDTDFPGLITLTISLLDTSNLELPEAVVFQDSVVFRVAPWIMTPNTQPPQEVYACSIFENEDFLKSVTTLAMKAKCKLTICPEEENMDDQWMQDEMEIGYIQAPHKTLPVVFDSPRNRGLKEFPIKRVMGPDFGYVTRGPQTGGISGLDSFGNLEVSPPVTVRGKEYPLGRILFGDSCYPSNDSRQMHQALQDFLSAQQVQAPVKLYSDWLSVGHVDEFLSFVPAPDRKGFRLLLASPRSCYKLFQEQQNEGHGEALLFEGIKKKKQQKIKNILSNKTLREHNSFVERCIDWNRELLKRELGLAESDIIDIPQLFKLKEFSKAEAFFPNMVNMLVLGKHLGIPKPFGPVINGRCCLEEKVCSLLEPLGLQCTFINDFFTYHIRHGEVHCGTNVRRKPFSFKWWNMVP
Experimental: One way ANOVA with Tukey's post hoc testing, ***P<0.001.
nNIF inhibition of PAD4 activity was determined using a PAD4 inhibitor screening assay kit (CAYMAN™). Briefly, nNIF (1 nM) was incubated with recombinant PAD4 and PAD4 enzyme substrate (2 mM) in PAD4 assay reagent for 30 minutes at 37° C. […] The reaction was stopped with PAD4 Stop Solution and detected using an included ammonia detector assay. Ammonia detector fluorescence was measured at 470 nm following excitation at 405 nm on a SPECTRAMAX™ M5 fluorescence plate reader (MOLECULAR DEVICES™).

[2] = tested on: LPS-induced peritoneal NET formation; assay: Mouse model of LPS-induced peritonitis (in vivo NET formation); details: C57BL/6 mice, i.p. LPS
Experimental: C57/BL6 or Swiss-Webster mice were pretreated in blinded fashion with CRISPP (10 mg/kg), nNIF (10 mg/kg), or CRISPP-SCR (10 mg/kg) by i.p. injection 1 hour prior to infection (E. coli, 4.5×10^7 cfu/mouse, i.p.) or inoculation (LPS, 25 mg/kg, i.p.) (SIGMA-ALDRICH®). Control mice were injected with saline alone. The mice were sacrificed in a CO2 chamber 3 hours post-infection/inoculation, and the peritoneal fluid and membrane samples were harvested. Briefly, the abdomen was disinfected and opened in the midline without injuring the muscle. The peritoneal cavity was lavaged with sterile saline solution (1 mL) and analyzed for in vivo NET formation, bacteriology, and leukocyte accumulation. NETs in the peritoneal fluid were qualitatively and quantitatively analyzed using live cell imaging with confocal microscopy and NET-associated histone H3 release assays. NETs on the serosal surface of the peritoneal membrane were assessed quantitatively using live cell imaging, followed by standardized grid analysis of five randomly selected high-power visual fields per tissue sample (IMAGEJ™ software, NIH). Peritoneal bacterial colony forming unit (cfu) counts were quantified by permeabilizing all recovered leukocytes with 0.1% Triton X-100 for 10 minutes and performing serial dilutions and bacterial cultures on 5% sheep blood agar plates (HARDY DIAGNOSTICS™). After a 24-hour incubation, bacterial counts were determined. Total leukocyte counts in the peritoneal lavage were determined in Neubauer chambers using an optical microscope after dilution in Turk's solution (2% acetic acid). Differential leukocyte analysis was performed using a 60× oil immersion objective to assess morphology of cyto-centrifuged cells stained with May-Gruenwald-Giemsa dye. All mice were included in the final analysis.

PMN chemotaxis = assay: IL-8 induced chemotaxis, modified Boyden chamber; type: cell-based, human; details: IL-8 2 ng/mL, peptides 1 nM
Experimental: FIG. 6D is a graph depicting chemotaxis in response to IL-8 (2 ng/mL) that was examined in a Boyden chamber assay. The dashed line indicates the response to IL-8 alone arbitrarily set at 1.
Chemotaxis by PMNs isolated from healthy adult donors was assessed using a modified Boyden chamber assay ± a 1 hour pre-incubation with nNIF (1 nM), CRISPP (1 nM), or CRISPP-SCR (1 nM). Recombinant human IL-8 (2 ng/mL) was used as the chemoattractant. Chemotaxis through a 5 micron filter was determined by counting PMNs in 10 randomly selected high-power fields as previously described (see Hill H R, et al., Lancet. 1974; 2 (7881):617-9). In separate experiments, nNIF, CRISPP, or CRISPP-SCR (all at 1 nM) were evaluated for chemoattractant activity using the same system.
Without being bound by any specific theory, it was hypothesized that placentally expressed HTRA1, a serine protease, regulates the formation of NET-inhibitory peptides through cleavage of AAT. To test this hypothesis, term and preterm placenta were assessed for HTRA1 expression via western blotting. HTRA1 and AAT plasma expression from term and preterm infants and adults were determined by ELISA. […] Carboxy-terminus fragments of AAT were detected using western blotting and mass spectrometry. […] Reactive oxygen species were assessed using flow cytometry, chemotaxis using a modified Boyden chamber assay, and bacterial killing using E. coli.

[3] = tested on: C57BL/6 mice challenged with LPS; assay: Mouse model of systemic inflammation induced by LPS (endotoxemia), survival; type: in vivo
Experimental: Animals with no treatments or given LPS alone were studied in parallel (n≥10 mice for each condition). **P<0.01, log-rank (Mantel-Cox) statistical tool used. The survival difference between nNIF-LPS and CRISPP-LPS compared to CRISPP-SCR-LPS trended toward significance (§ P=0.051).
Control mice were i.p. injected with saline alone. Fluid resuscitation and antibiotic treatment were not used in these experiments. Survival was assessed over 50 or 72 hour intervals. All mice were included in the final survival analysis.

Row | Substance | nuclear decondensation (number of decondensed nuclei) [1] | PAD4 activity (recombinant PAD4) | order of potency of inhibition of PAD4 (recombinant PAD4) | LPS-induced peritoneal NET formation [2] | IL-8 induced chemotaxis (PMN chemotaxis) | survival advantage at 72 hours ([3]; second experiment, compared to LPS alone) | animals alive at 50 hours ([3]; i.p. LPS, first experiment, n=6 per group)
1 | KFNKPFVFLMIEQNTKSPLFMGKVVNPTQ (listed as Homo sapiens) [nNIF] | dramatically reduced | blocked its activity | nNIF ≈CRISPP>A1ATm^358 | inhibited | did not inhibit | durable | 
2 | M_IPPEVKFNKPFVFLMIDQNTKVPLFMGK [CRISPP, consensus peptide based on factors present in the blood of patients with cancer] | dramatically reduced | inhibited | nNIF ≈CRISPP>A1ATm^358 | inhibited | did not inhibit |  | all
